Patent US20250098679A1, “HERBICIDAL PYRIDONE DERIVATIVES” (SYNGENTA CROP PROTECTION AG, priority 2021, published 2025)

Tests used:
Type in all cases: in vivo
Conditions in all cases: evaluated after 13 days
[1] = system: Amaranthus retoflexus (AMARE); test: Post-emergence Test, Amaranthus retoflexus (AMARE); design: key to percentage damage caused to the plant, AMARE (five-point scale): 5=81-100%, 4=61-80%, 3=41-60%, 2=21-40%, 1=0-20% damage
Procedure, shortened: (§1)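 Sown pots in a glasshouse (24/16 °C day/night, 14 h light, 65% humidity) were sprayed with compound in acetone/water (50:50) with 0.5% Tween 20, at 1000 g/ha unless otherwise stated. Damage was assessed 13 days after spraying and scored 1–5 (5=81-100%, 1=0-20%).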

[2] = system: Amaranthus palmeri (AMAPA); test: Post-emergence Test, Amaranthus palmeri (AMAPA); design: key: 5=81-100%, 4=61-80%, 3=41-60%, 2=21-40%, 1=0-20% damage
Procedure, shortened: as §1

[3] = system: Setaria faberi (SETFA); test: Post-emergence Test, Setaria faberi (SETFA); design: key to percentage damage caused to the plant, SETFA (five-point scale): 5=81-100%, 4=61-80%, 3=41-60%, 2=21-40%, 1=0-20% damage
Procedure, shortened: as §1

[4] = system: Ipomoea hederacea (IPOHE); test: Pre-emergence Test, Ipomoea hederacea (IPOHE)
[5] = system: Amaranthus retoflexus (AMARE); test: Pre-emergence Test, Amaranthus retoflexus (AMARE)
[6] = system: Ipomoea hederacea (IPOHE); test: Post-emergence Test, Ipomoea hederacea (IPOHE); design: key to percentage damage caused to the plant, IPOHE (five-point scale): 5=81-100%, 4=61-80%, 3=41-60%, 2=21-40%, 1=0-20% damage
Procedure, shortened: as §1

[7] = system: Echinochloa crus-galli (ECHCG); test: Post-emergence Test, Echinochloa crus-galli (ECHCG); design: key to percentage damage caused to the plant, ECHCG (five-point scale): 5=81-100%, 4=61-80%, 3=41-60%, 2=21-40%, 1=0-20% damage
Procedure, shortened: as §1

[8] = system: Echinochloa crus-galli (ECHCG); test: Pre-emergence Test, Echinochloa crus-galli (ECHCG)
[9] = system: Zea mays (ZEAMX); test: Post-emergence Test, Zea mays (ZEAMX); design: key to percentage damage caused to the plant, ZEAMX (five-point scale): 5=81-100%, 4=61-80%, 3=41-60%, 2=21-40%, 1=0-20% damage
Procedure, shortened: as §1

[10] = system: Zea mays (ZEAMX); test: Pre-emergence Test, Zea mays (ZEAMX)
[11] = system: Amaranthus palmeri (AMAPA); test: Pre-emergence Test, Amaranthus palmeri (AMAPA)
[12] = system: Setaria faberi (SETFA); test: Pre-emergence Test, Setaria faberi (SETFA)

Row | Structure (SMILES) | percentage damage caused to the plant, AMARE (five-point scale) ([1]; 250 g/Ha) | percentage damage caused to the plant, AMARE (five-point scale) ([1]; 1000 g/ha) | percentage damage caused to the plant, AMAPA (five-point scale) ([2]; 250 g/Ha) | percentage damage caused to the plant, AMAPA (five-point scale) ([2]; 1000 g/ha) | percentage damage caused to the plant, SETFA (five-point scale) ([3]; 250 g/Ha) | percentage damage caused to the plant, SETFA (five-point scale) ([3]; 1000 g/ha) | Pre-emergence Test IPOHE, percentage damage caused to the plant (five-point scale) ([4]; 250 g/Ha (*)) | Pre-emergence Test IPOHE, percentage damage caused to the plant (five-point scale) ([4]; 1000 g/ha) | Pre-emergence Test AMARE, percentage damage caused to the plant (five-point scale) ([5]; 250 g/Ha (*)) | Pre-emergence Test AMARE, percentage damage caused to the plant (five-point scale) ([5]; 1000 g/ha) | percentage damage caused to the plant, IPOHE (five-point scale) ([6]; 250 g/Ha) | percentage damage caused to the plant, IPOHE (five-point scale) ([6]; 1000 g/ha) | percentage damage caused to the plant, ECHCG (five-point scale) ([7]; 250 g/Ha) | percentage damage caused to the plant, ECHCG (five-point scale) ([7]; 1000 g/ha) | Pre-emergence Test ECHCG, percentage damage caused to the plant (five-point scale) ([8]; 1000 g/ha) | percentage damage caused to the plant, ZEAMX (five-point scale) ([9]; 250 g/Ha) | percentage damage caused to the plant, ZEAMX (five-point scale) ([9]; 1000 g/ha) | Pre-emergence Test ZEAMX, percentage damage caused to the plant (five-point scale) ([10]; 1000 g/ha) | Pre-emergence Test AMAPA, percentage damage caused to the plant (five-point scale) ([11]; 1000 g/ha) | Pre-emergence Test SETFA, percentage damage caused to the plant (five-point scale) ([12]; 1000 g/ha) | other results
1 | CCn1c(Cn2nc(C(F)(F)F)cc2OC(F)F)cc(=O)c(C(=O)O)c1-c1ccc(Cl)c(Cl)c1 [Compound 151, 2-(3,4-dichlorophenyl)-6-[[5-(difluoromethoxy)-3-(trifluoromethyl)pyrazol-1-yl]methyl]-1-ethyl-4-oxo-pyridine-3-carboxylic acid] | 1 (1=0-20%) | 3 (3=41-60%) | 1 (1=0-20%) | 2 (2=21-40%) | 4 (4=61-80%) | 4 (4=61-80%) | 2 (2=21-40%) | 4 (4=61-80%) | 0 | 0 | 4 (4=61-80%) | 4 (4=61-80%) | 3 (3=41-60%) | 4 (4=61-80%) | 5 (5=81-100%) | 1 (1=0-20%) | 3 (3=41-60%) | 2 (2=21-40%) | 1 (1=0-20%) | 5 (5=81-100%) | Pre-emergence Test ECHCG, percentage damage caused to the plant (five-point scale) ([8]; 250 g/Ha (*)): 5 (5=81-100%); Pre-emergence Test ZEAMX, percentage damage caused to the plant (five-point scale) ([10]; 250 g/Ha (*)): 2 (2=21-40%); Pre-emergence Test AMAPA, percentage damage caused to the plant (five-point scale) ([11]; 250 g/Ha (*)): 0; Pre-emergence Test SETFA, percentage damage caused to the plant (five-point scale) ([12]; 250 g/Ha (*)): 5 (5=81-100%)
2 | CCn1c(Cn2nc(C)cc2OC(F)F)cc(=O)c(C(=O)O)c1-c1ccc(Cl)c(Cl)c1 [Compound 150, 2-(3,4-dichlorophenyl)-6-[[5-(difluoromethoxy)-3-methyl-pyrazol-1-yl]methyl]-1-ethyl-4-oxo-pyridine-3-carboxylic acid] | 0 | 2 (2=21-40%) | 0 | 1 (1=0-20%) | 4 (4=61-80%) | 4 (4=61-80%) | 1 (1=0-20%) | 4 (4=61-80%) | 0 | 1 (1=0-20%) | 4 (4=61-80%) | 2 (2=21-40%) | 2 (2=21-40%) | 4 (4=61-80%) | 5 (5=81-100%) | 1 (1=0-20%) | 3 (3=41-60%) | 3 (3=41-60%) | 2 (2=21-40%) | 5 (5=81-100%) | Pre-emergence Test ECHCG, percentage damage caused to the plant (five-point scale) ([8]; 250 g/Ha (*)): 4 (4=61-80%); Pre-emergence Test ZEAMX, percentage damage caused to the plant (five-point scale) ([10]; 250 g/Ha (*)): 1 (1=0-20%); Pre-emergence Test AMAPA, percentage damage caused to the plant (five-point scale) ([11]; 250 g/Ha (*)): 1 (1=0-20%); Pre-emergence Test SETFA, percentage damage caused to the plant (five-point scale) ([12]; 250 g/Ha (*)): 5 (5=81-100%)
3 | CCOC(=O)c1cc(C(=O)OCC)n(Cc2cc(=O)c(C(=O)O)c(-c3ccc(Cl)c(Cl)c3)n2CC)n1 [Compound 112, 6-[[3,5-bis(ethoxycarbonyl)pyrazol-1-yl]methyl]-2-(3,4-dichlorophenyl)-1-ethyl-4-oxo-pyridine-3-carboxylic acid] |  | 1 (1=0-20%) |  | 1 (1=0-20%) |  | 1 (1=0-20%) |  | 0 |  | 1 (1=0-20%) |  | 2 (2=21-40%) |  | 2 (2=21-40%) | 0 |  | 0 | 0 | 1 (1=0-20%) | 0 | 
4 | CCn1c(Cn2ccc(C(F)(F)F)n2)cc(=O)c(C(=O)O)c1-c1ccc(F)c(Cl)c1 [Compound 32, 2-(3-chloro-4-fluoro-phenyl)-1-ethyl-4-oxo-6-[[3-(trifluoromethyl)pyrazol-1-yl]methyl]pyridine-3-carboxylic acid] | 1 (1=0-20%) | 4 (4=61-80%) | 2 (2=21-40%) | 2 (2=21-40%) | 4 (4=61-80%) | 4 (4=61-80%) |  | 3 (3=41-60%) |  | 3 (3=41-60%) | 4 (4=61-80%) | 2 (2=21-40%) | 3 (3=41-60%) | 4 (4=61-80%) | 5 (5=81-100%) | 1 (1=0-20%) | 3 (3=41-60%) | 4 (4=61-80%) | 4 (4=61-80%) | 5 (5=81-100%) | 
5 | CCn1c(Cn2cc([N+](=O)[O-])c(C)n2)cc(=O)c(C(=O)O)c1-c1ccc(Cl)c(Cl)c1 [Compound 64, 2-(3,4-dichlorophenyl)-1-ethyl-6-[(3-methyl-4-nitro-pyrazol-1-yl)methyl]-4-oxo-pyridine-3-carboxylic acid] | 3 (3=41-60%) |  | 2 (2=21-40%) |  | 2 (2=21-40%) |  | 3 (3=41-60%) |  | 0 |  | 1 (1=0-20%) |  | 3 (3=41-60%) |  |  | 1 (1=0-20%) |  |  |  |  | Pre-emergence Test ECHCG, percentage damage caused to the plant (five-point scale) ([8]; 250 g/Ha (*)): 0; Pre-emergence Test ZEAMX, percentage damage caused to the plant (five-point scale) ([10]; 250 g/Ha (*)): 0; Pre-emergence Test AMAPA, percentage damage caused to the plant (five-point scale) ([11]; 250 g/Ha (*)): 1 (1=0-20%); Pre-emergence Test SETFA, percentage damage caused to the plant (five-point scale) ([12]; 250 g/Ha (*)): 2 (2=21-40%)
